Assay results from PMC8119466, “A screen of FDA-approved drugs identifies inhibitors of protein tyrosine phosphatase 4A3 (PTP4A3 or PRL-3)” (Scientific Reports, 2021).
Structures can show the parent of a compound that is named as a salt.

Assays:
Assay type in all cases: biochemical
Conditions in all cases: FDA-approved drug screen; compared to DMSO
[1] = biological target: T1, recombinant PRL-1 (Homo sapiens, UniProt Q93096); assay: In vitro phosphatase assay (DiFMUP hydrolysis), PRL-1; note: test concentration or dose not given here
T1 construct: 6xHis (N, cleaved yes); made in house; host or cells: E. coli One Shot BL21 Star
T1 sequence (Q93096 1-173): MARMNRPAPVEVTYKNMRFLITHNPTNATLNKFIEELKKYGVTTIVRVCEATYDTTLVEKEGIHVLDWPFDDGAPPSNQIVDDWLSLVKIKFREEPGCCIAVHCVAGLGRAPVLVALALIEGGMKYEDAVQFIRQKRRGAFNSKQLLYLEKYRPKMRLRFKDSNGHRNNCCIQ

[2] = biological target: T2, recombinant PRL-2 (Homo sapiens, UniProt Q12974); assay: In vitro phosphatase assay (DiFMUP hydrolysis), PRL-2;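 note: PRL-2 activity read as DiFMUP hydrolysis after 20 min at room temperature with drug, enzyme first pre-reduced at 4 °C for 20 min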
T2 construct: 6xHis (N, cleaved yes); made in house; host or cells: E. coli One Shot BL21 Star
T2 sequence (Q12974 1-167): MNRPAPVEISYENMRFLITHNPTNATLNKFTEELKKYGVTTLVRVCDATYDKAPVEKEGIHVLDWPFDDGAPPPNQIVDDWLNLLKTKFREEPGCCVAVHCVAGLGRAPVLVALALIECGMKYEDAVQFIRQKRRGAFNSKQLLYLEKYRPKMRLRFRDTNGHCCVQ

[3] = biological target: T3, recombinant PRL-3 (Homo sapiens, UniProt O75365); assay: In vitro phosphatase assay (DiFMUP hydrolysis), PRL-3; note: test concentration or dose not given here
T3 construct: 6xHis (N, cleaved yes); made in house; host or cells: E. coli One Shot BL21 Star
T3 sequence (O75365 whole entry): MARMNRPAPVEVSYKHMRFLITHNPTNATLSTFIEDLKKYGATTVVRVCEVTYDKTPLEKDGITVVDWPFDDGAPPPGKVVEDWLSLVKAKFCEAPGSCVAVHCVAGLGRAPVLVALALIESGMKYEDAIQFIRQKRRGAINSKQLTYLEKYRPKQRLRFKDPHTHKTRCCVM

Row | Structure (SMILES) | % Phosphatase Activity (compared to DMSO) PRL-1 [1] | % Phosphatase Activity (compared to DMSO) PRL-2 [2] | % Phosphatase Activity (compared to DMSO) PRL-3 [3]
1 | O=C(O)CCc1nc(-c2ccccc2)c(-c2ccccc2)o1 [Oxaprozin] | 96% | 106% | 71%
2 | NC(=O)N1c2ccccc2CC(=O)c2ccccc21 [Oxcarbazepine] | 104% | 112% | 89%
3 | CCN(CC)CCOCCOC(=O)C(CC)(CC)c1ccccc1.O=C(O)CC(O)(CC(=O)O)C(=O)O [Oxeladin Citrate] | 90% | 88% | 89%
4 | COC(=O)Nc1nc2ccc([S+]([O-])c3ccccc3)cc2[nH]1 (stereo not drawn) [Oxfendazole] | 84% | 102% | 92%
5 | NC(=O)CN1CC(O)CC1=O (stereo not drawn) [Oxiracetam] | 94% | 122% | 71%
6 | COc1ccc(C(=O)c2ccccc2)c(O)c1 [Oxybenzone] | 99% | 81% | 93%
7 | CCCCOc1cc(C(=O)OCCN(CC)CC)ccc1N [Oxybuprocaine HCl] | 97% | 103% | 93%
8 | CCN(CC)CC#CCOC(=O)C(O)(c1ccccc1)C1CCCCC1 (stereo not drawn) [Oxybutynin chloride] | 88% | 85% | 75%
9 | CCN(CC)CC#CCOC(=O)C(O)(c1ccccc1)C1CCCCC1 (stereo not drawn) [Oxybutynin] | 91% | 99% | 118%
10 | Cc1cc(C(C)(C)C)c(O)c(C)c1CC1=NCCN1 [Oxymetazoline hydrochloride] | 99% | 118% | 82%
11 | CN(C)[C@@H]1C(=O)C(C(N)=O)=C(O)[C@@]2(O)C(=O)C3=C(O)c4c(O)cccc4[C@@](C)(O)[C@H]3[C@H](O)[C@@H]12 [Oxytetracycline (Terramycin)] | 58% | 73% | 74%
12 | CN(C)[C@@H]1C(O)=C(C(N)=O)C(=O)[C@@]2(O)C(O)=C3C(=O)c4c(O)cccc4[C@@](C)(O)[C@H]3[C@H](O)[C@@H]12 [Oxytetracycline Dihydrate] | 98% | 101% | 98%
13 | O=C(O)/C=C/c1ccc(Cn2ccnc2)cc1 [Ozagrel] | 96% | 101% | 76%
14 | CC(C)Oc1ccc(-c2nc(-c3cccc4c3CC[C@@H]4NCCO)no2)cc1C#N [Ozanimod (RPC1063)] | 95% | 101% | 88%
15 | CN(C)Cc1c(C(=O)NCCOc2ccc(C(=O)NO)cc2)oc2ccccc12 [PCI-24781 (Abexinostat)] | 100% | 96% | 86%
16 | CC(=O)O[C@H]1C(=O)[C@@]2(C)[C@H]([C@H](OC(=O)c3ccccc3)[C@]3(O)C[C@H](OC(=O)[C@H](O)[C@@H](NC(=O)c4ccccc4)c4ccccc4)C(C)=C1C3(C)C)[C@]1(OC(C)=O)CO[C@@H]1C[C@@H]2O [Paclitaxel] | 94% | 97% | 76%
17 | C1=N/C2=N/c3ccc(OCCN4CCCC4)c(c3)COC/C=C/COCc3cccc(c3)C(=C1)N2 [Pacritinib (SB1518)] | 95% | 98% | 78%
18 | CC(=O)c1c(C)c2cnc(Nc3ccc(N4CCNCC4)cn3)nc2n(C2CCCC2)c1=O.O=S(=O)(O)CCO [Palbociclib (PD0332991) Isethionate] | 75% | 61% | 100%
19 | CC(=O)c1c(C)c2cnc(Nc3ccc(N4CCNCC4)cn3)nc2n(C2CCCC2)c1=O.Cl [Palbociclib (PD-0332991) HCl] | 68% | 61% | 102%
20 | Cc1nc2n(c(=O)c1CCN1CCC(c3noc4cc(F)ccc34)CC1)CCCC2O (stereo not drawn) [Paliperidone] | 102% | 103% | 75%
